According to patent publication US12077503B2, “Substituted cyclic amides and their use as herbicides” (FMC CORPORATION, priority 2015, dated 2024):

How the values were obtained:
Format in all cases: in vivo
[1] = tested on: nutsedge, yellow (yellow nutsedge, Cyperus esculentus); assay: Test E preemergence; details: scale 0 to 100
In short: (§1)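 Seeds planted in silt loam were treated preemergence, and plants in Redi-Earth peat medium at 2 to 18 cm (1- to 4-leaf) were treated postemergence, with test chemicals in non-phytotoxic solvent with surfactant. Plants kept in greenhouse 14 to 21 d, then visually rated against controls on a 0–100 scale (0 no effect, 100 complete control).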

[2] = tested on: waterhemp (common waterhemp, Amaranthus rudis); assay: Test E preemergence; details: scale 0 to 100
In short: as §1

[3] = tested on: Panicum, fall (fall Panicum, Panicum dichotomiflorum); assay: Test E preemergence; details: scale 0 to 100
In short: as §1

[4] = tested on: foxtail, giant (giant foxtail, Setaria faberii); assay: Test E preemergence; details: scale 0 to 100
In short: as §1

[5] = tested on: beggarticks (hairy beggarticks, Bidens pilosa); assay: Test E preemergence; details: scale 0 to 100
In short: as §1

[6] = tested on: ryegrass, Italian (Italian ryegrass, Lolium multiflorum); assay: Test E preemergence; details: scale 0 to 100
In short: as §1

[7] = tested on: corn (Zea mays); assay: Test E preemergence; details: scale 0 to 100
In short: as §1

[8] = tested on: barnyardgrass (Echinochloa crus-galli); assay: Test E preemergence; details: scale 0 to 100
In short: as §1

[9] = tested on: johnsongrass (Sorghum halepense); assay: Test E preemergence; details: scale 0 to 100
In short: as §1

[10] = tested on: soybean (Glycine max); assay: Test E preemergence; details: scale 0 to 100
In short: as §1

[11] = tested on: dayflower, VA (Virginia dayflower, Commelina virginica); assay: Test E preemergence; details: scale 0 to 100
In short: as §1

[12] = tested on: ragweed (common ragweed, Ambrosia elatior); assay: Test E preemergence; details: scale 0 to 100
In short: as §1

[13] = tested on: Kochia (Kochia scoparia); assay: Test E preemergence; details: scale 0 to 100
In short: as §1

[14] = tested on: nutsedge, yellow (yellow nutsedge, Cyperus esculentus); assay: Test C preemergence; details: for Plant response rating (scale of 0 to 100), Nutsedge, Yellow: 0 is no effect, 100 is complete control; for Plant response rating, Nutsedge, Yellow: scale 0 to 100, 0 no effect, 100 complete control
In short: (§2)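 Visual rating, 0–100 scale (0 = no effect, 100 = complete control) versus controls, 13–15 d after treatment. Compounds in non-phytotoxic solvent plus surfactant; applied preemergence to seeds in loam/sand soil or postemergence to 1- to 4-leaf plants (2–18 cm) in peat/vermiculite medium; greenhouse-held.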

[15] = tested on: blackgrass (Alopecurus myosuroides); assay: Test C preemergence; details: for Plant response rating (scale of 0 to 100), Blackgrass: 0 is no effect, 100 is complete control; for Plant response rating, Blackgrass: scale 0 to 100, 0 no effect, 100 complete control
In short: as §2

CN1C[C@H](c2ccc(F)c(F)c2)[C@@H](C(=O)Nc2ccccc2F)C1=O [Compound 596, (3S,4S)-4-(3,4-difluorophenyl)-N-(2-fluorophenyl)-1-methyl-2-oxo-3-pyrrolidinecarboxamide]
70: Plant response rating, Blackgrass ([15]; 125 g ai/ha)
35: Plant response rating: Ryegrass, Italian ([6]; 125 g ai/ha) | Plant response rating: Johnsongrass ([9]; 250 g ai/ha) | Plant response rating: Dayflower, VA ([11]; 250 g ai/ha)
25: Plant response rating: Ragweed ([12]; 125 g ai/ha) | Plant response rating: Kochia ([13]; 62 g ai/ha)
0: Plant response rating: Nutsedge, Yellow ([1]; 31 g ai/ha) | Plant response rating: Nutsedge, Yellow ([1]; 62 g ai/ha) | Plant response rating: Nutsedge, Yellow ([1]; 125 g ai/ha) | Plant response rating: Nutsedge, Yellow ([1]; 250 g ai/ha) | Plant response rating: Waterhemp ([2]; 31 g ai/ha) | Plant response rating: Waterhemp ([2]; 62 g ai/ha) | Plant response rating: Waterhemp ([2]; 125 g ai/ha) | Plant response rating: Panicum, Fall ([3]; 31 g ai/ha) | Plant response rating: Panicum, Fall ([3]; 62 g ai/ha) | Plant response rating: Panicum, Fall ([3]; 125 g ai/ha) | Plant response rating: Beggarticks ([5]; 31 g ai/ha) | Plant response rating: Beggarticks ([5]; 62 g ai/ha) | Plant response rating: Beggarticks ([5]; 125 g ai/ha) | Plant response rating: Beggarticks ([5]; 250 g ai/ha) | Plant response rating: Ryegrass, Italian ([6]; 31 g ai/ha) | Plant response rating: Ryegrass, Italian ([6]; 62 g ai/ha) | Plant response rating: Corn ([7]; 31 g ai/ha) | Plant response rating: Corn ([7]; 62 g ai/ha) | Plant response rating: Corn ([7]; 125 g ai/ha) | Plant response rating: Corn ([7]; 250 g ai/ha) | Plant response rating: Johnsongrass ([9]; 31 g ai/ha) | Plant response rating: Johnsongrass ([9]; 62 g ai/ha) | Plant response rating: Johnsongrass ([9]; 125 g ai/ha) | Plant response rating: Soybean ([10]; 31 g ai/ha) | Plant response rating: Soybean ([10]; 62 g ai/ha) | Plant response rating: Soybean ([10]; 125 g ai/ha) | Plant response rating: Soybean ([10]; 250 g ai/ha) | Plant response rating: Dayflower, VA ([11]; 31 g ai/ha) | Plant response rating: Ragweed ([12]; 31 g ai/ha) | Plant response rating: Ragweed ([12]; 62 g ai/ha) | Plant response rating: Kochia ([13]; 31 g ai/ha) | Plant response rating (scale of 0 to 100), Nutsedge, Yellow ([14]; 31 g ai/ha) | Plant response rating, Nutsedge, Yellow ([14]; 62 g ai/ha) | Plant response rating, Nutsedge, Yellow ([14]; 125 g ai/ha) | Plant response rating, Nutsedge, Yellow ([14]; 250 g ai/ha) | Plant response rating (scale of 0 to 100), Blackgrass ([15]; 31 g ai/ha)
40: Plant response rating: Dayflower, VA ([11]; 62 g ai/ha) | Plant response rating: Dayflower, VA ([11]; 125 g ai/ha) | Plant response rating, Blackgrass ([15]; 62 g ai/ha)
95: Plant response rating: Foxtail, Giant ([4]; 31 g ai/ha) | Plant response rating: Foxtail, Giant ([4]; 62 g ai/ha) | Plant response rating: Barnyardgrass ([8]; 31 g ai/ha)
90: Plant response rating: Panicum, Fall ([3]; 250 g ai/ha) | Plant response rating: Kochia ([13]; 250 g ai/ha) | Plant response rating, Blackgrass ([15]; 250 g ai/ha)
50: Plant response rating: Waterhemp ([2]; 250 g ai/ha) | Plant response rating: Ryegrass, Italian ([6]; 250 g ai/ha) | Plant response rating: Ragweed ([12]; 250 g ai/ha)
80: Plant response rating: Kochia ([13]; 125 g ai/ha)
98: Plant response rating: Foxtail, Giant ([4]; 125 g ai/ha) | Plant response rating: Foxtail, Giant ([4]; 250 g ai/ha) | Plant response rating: Barnyardgrass ([8]; 62 g ai/ha) | Plant response rating: Barnyardgrass ([8]; 125 g ai/ha) | Plant response rating: Barnyardgrass ([8]; 250 g ai/ha)

CN1C[C@H](c2ccc(C(F)(F)F)cc2)[C@@H](C(=O)Nc2cccc(F)c2F)C1=O [Compound 623, (3S,4S)—N-(2,3-difluorophenyl)-1-methyl-2-oxo-4-[4-(trifluoromethyl)phenyl]-3-pyrrolidinecarboxamide]
80: Plant response rating: Nutsedge, Yellow ([1]; 250 g ai/ha)
65: Plant response rating: Corn ([7]; 250 g ai/ha)
20: Plant response rating: Nutsedge, Yellow ([1]; 62 g ai/ha) | Plant response rating: Dayflower, VA ([11]; 125 g ai/ha)
25: Plant response rating: Ryegrass, Italian ([6]; 31 g ai/ha)
95: Plant response rating: Waterhemp ([2]; 125 g ai/ha) | Plant response rating: Waterhemp ([2]; 250 g ai/ha) | Plant response rating: Foxtail, Giant ([4]; 31 g ai/ha) | Plant response rating: Foxtail, Giant ([4]; 62 g ai/ha) | Plant response rating: Foxtail, Giant ([4]; 125 g ai/ha) | Plant response rating: Foxtail, Giant ([4]; 250 g ai/ha) | Plant response rating: Barnyardgrass ([8]; 31 g ai/ha) | Plant response rating: Barnyardgrass ([8]; 62 g ai/ha) | Plant response rating: Johnsongrass ([9]; 250 g ai/ha) | Plant response rating: Ragweed ([12]; 125 g ai/ha) | Plant response rating: Kochia ([13]; 125 g ai/ha) | Plant response rating: Kochia ([13]; 250 g ai/ha)
98: Plant response rating: Barnyardgrass ([8]; 125 g ai/ha) | Plant response rating: Barnyardgrass ([8]; 250 g ai/ha)
85: Plant response rating: Johnsongrass ([9]; 125 g ai/ha) | Plant response rating: Ragweed ([12]; 250 g ai/ha)
0: Plant response rating: Nutsedge, Yellow ([1]; 31 g ai/ha) | Plant response rating: Beggarticks ([5]; 31 g ai/ha) | Plant response rating: Beggarticks ([5]; 62 g ai/ha) | Plant response rating: Beggarticks ([5]; 125 g ai/ha) | Plant response rating: Corn ([7]; 31 g ai/ha) | Plant response rating: Soybean ([10]; 31 g ai/ha) | Plant response rating: Soybean ([10]; 62 g ai/ha) | Plant response rating: Soybean ([10]; 125 g ai/ha) | Plant response rating: Soybean ([10]; 250 g ai/ha) | Plant response rating: Dayflower, VA ([11]; 31 g ai/ha) | Plant response rating: Dayflower, VA ([11]; 62 g ai/ha) | Plant response rating (scale of 0 to 100), Nutsedge, Yellow ([14]; 8 g ai/ha) | Plant response rating (scale of 0 to 100), Nutsedge, Yellow ([14]; 16 g ai/ha) | Plant response rating (scale of 0 to 100), Nutsedge, Yellow ([14]; 31 g ai/ha) | Plant response rating, Nutsedge, Yellow ([14]; 62 g ai/ha) | Plant response rating (scale of 0 to 100), Blackgrass ([15]; 8 g ai/ha)
60: Plant response rating: Ryegrass, Italian ([6]; 125 g ai/ha) | Plant response rating: Corn ([7]; 62 g ai/ha) | Plant response rating: Johnsongrass ([9]; 62 g ai/ha) | Plant response rating: Ragweed ([12]; 31 g ai/ha) | Plant response rating (scale of 0 to 100), Blackgrass ([15]; 31 g ai/ha)
50: Plant response rating: Ryegrass, Italian ([6]; 62 g ai/ha)
35: Plant response rating: Beggarticks ([5]; 250 g ai/ha) | Plant response rating: Dayflower, VA ([11]; 250 g ai/ha)
75: Plant response rating: Corn ([7]; 125 g ai/ha)
40: Plant response rating: Nutsedge, Yellow ([1]; 125 g ai/ha) | Plant response rating: Johnsongrass ([9]; 31 g ai/ha) | Plant response rating (scale of 0 to 100), Blackgrass ([15]; 16 g ai/ha)
90: Plant response rating: Waterhemp ([2]; 31 g ai/ha) | Plant response rating: Waterhemp ([2]; 62 g ai/ha) | Plant response rating: Panicum, Fall ([3]; 31 g ai/ha) | Plant response rating: Panicum, Fall ([3]; 62 g ai/ha) | Plant response rating: Panicum, Fall ([3]; 125 g ai/ha) | Plant response rating: Panicum, Fall ([3]; 250 g ai/ha) | Plant response rating: Ryegrass, Italian ([6]; 250 g ai/ha) | Plant response rating: Ragweed ([12]; 62 g ai/ha) | Plant response rating: Kochia ([13]; 31 g ai/ha) | Plant response rating: Kochia ([13]; 62 g ai/ha) | Plant response rating, Blackgrass ([15]; 62 g ai/ha)
